According to patent US20100286136A1, “DIHYDRONAPHTHYRIDINYL AND RELATED COMPOUNDS FOR USE IN TREATING OPHTHALMOLOGICAL DISORDERS” (priority 2009, published 2010):

What follows are molecules tested against T1, CCR2b (Homo sapiens, UniProt P41597) (assay: AequoScreen CCR2b calcium flux assay, antagonist mode against reference agonist MCP-1). Details: AequoScreen CCR2b (FAST-060A) cells; inhibition of reference agonist MCP-1 at its EC80; read-out: IC50 (μM) Ca^++flux.
T1 construct: host or cells: AequoScreen CCR2b cells
T1 sequence (P41597 1-360 isoform P41597-2): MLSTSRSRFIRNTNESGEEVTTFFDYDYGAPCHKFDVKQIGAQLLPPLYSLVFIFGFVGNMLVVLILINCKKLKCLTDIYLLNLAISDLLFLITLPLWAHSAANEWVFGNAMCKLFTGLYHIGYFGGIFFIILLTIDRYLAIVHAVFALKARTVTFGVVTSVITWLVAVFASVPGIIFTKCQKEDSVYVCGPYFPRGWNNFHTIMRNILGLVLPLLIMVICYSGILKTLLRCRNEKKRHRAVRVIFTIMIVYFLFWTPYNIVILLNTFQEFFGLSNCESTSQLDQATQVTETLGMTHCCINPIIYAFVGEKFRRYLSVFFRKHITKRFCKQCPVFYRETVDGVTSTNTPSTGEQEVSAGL
Assay type: cell-based
Procedure: The biological activity of the compounds described herein can be evaluated using assays known in the art, such as the AequoScreen™ assay.
AequoScreen™ CCR2b (FAST-060A) cells grown to mid-log phase in culture media without antibiotics are detached with PBS-EDTA, centrifuged and resuspended in assay buffer (DMEM/HAM's F12 with HEPES, without phenol red+0.1% BSA protease free) at a concentration of 1×10^6 cells/mL. Cells are incubated at room temperature for at least 4 hours with coelenterazine h. Dose response curves are performed before testing. The reference agonist is MCP-1.
For agonist testing, 50 μL of cell suspension is mixed with 50 μL of test compound in a 96-well plate. The resulting emission of light is recorded using a Hamamatsu Functional Drug Screening System 6000 (FDSS 6000).
Following an incubation of 15 minutes after the first injection, 100 μL of the resulting cell suspension containing the test compound is mixed with 100 μL of the reference agonist in the 96 well test plate. The resulting emission of light is recorded using the same luminometer as for agonist testing.
Agonist activity of a test compound can be expressed as a percentage of the activity of the reference agonist at its EC100 concentration. Antagonist activity of a test compound can be expressed as a percentage of the inhibition of reference agonist activity at its EC80 concentration.

SMILES	IC50
Cn1c(=O)oc2ccc(CN3CCC(CC4CC4)(C(=O)N4CCc5ncc(C(F)(F)F)cc5C4)C3)cc21 (stereo not drawn) [Example 23, 5-((3-(Cyclopropylmethyl)-3-(3-(trifluoromethyl)-5,6,7,8-tetrahydro-1,6-naphthyridine-6-carbonyl)pyrrolidin-1-yl)methyl)-3-methylbenzo[d]oxazol-2(3H)-one]	< 0.2 µM
CC(C)CC1(C(=O)N2CCc3ncc(C(F)(F)F)cc3C2)CCN(Cc2ccc3oc(=O)n(C)c3c2)C1 (stereo not drawn) [Example 24, 5-((3-Isobutyl-3-(3-(trifluoromethyl)-5,6,7,8-tetrahydro-1,6-naphthyridine-6-carbonyl)pyrrolidin-1-yl)methyl)-3-methylbenzo[d]oxazol-2(3H)-one]	< 0.2 µM
COCC1(C(=O)N2CCc3ncc(C(F)(F)F)cc3C2)CCN(Cc2ccc3sc(=O)n(C)c3c2)C1 (stereo not drawn) [Example 28, 5-((3-(Methoxymethyl)-3-(3-(trifluoromethyl)-5,6,7,8-tetrahydro-1,6-naphthyridine-6-carbonyl)pyrrolidin-1-yl)methyl)-3-methylbenzo[d]thiazol-2(3H)-one]	< 0.2 µM
COCC1(C(=O)N2CCc3ncc(C(F)(F)F)cc3C2)CCN(C2CCC(O)(C3CC3)CC2)C1 (stereo not drawn) [Example 35]	0.2 to 1 µM
COCC1(C(=O)N2CCc3ncc(C(F)(F)F)cc3C2)CCN(Cc2cc3c(ccc(=O)n3C)cc2Cl)C1 (stereo not drawn) [Example 36, 6-Chloro-7-((3-(methoxymethyl)-3-(3-(trifluoromethyl)-5,6,7,8-tetrahydro-1,6-naphthyridine-6-carbonyl)pyrrolidin-1-yl)methyl)-1-methylquinolin-2(1H)-one]	0.2 to 1 µM
COCC1(C(=O)N2CCc3ncc(C(F)(F)F)cc3C2)CCN(Cc2ccc3c(c2)n(C)c(=O)n3C)C1 (stereo not drawn) [Example 38, 5-((3-(Methoxymethyl)-3-(3-(trifluoromethyl)-5,6,7,8-tetrahydro-1,6-naphthyridine-6-carbonyl)pyrrolidin-1-yl)methyl)-1,3-dimethyl-1H-benzo[d]imidazol-2(3H)-one]	> 1 µM
COCC1(C(=O)N2CCc3ncc(C(F)(F)F)cc3C2)CCN(Cc2ccc3oc(=O)n(C)c3c2)C1 (stereo not drawn) [Example 39, 5-((3-(Methoxymethyl)-3-(3-(trifluoromethyl)-5,6,7,8-tetrahydro-1,6-naphthyridine-6-carbonyl)pyrrolidin-1-yl)methyl)-3-methylbenzo[d]oxazol-2(3H)-one]	< 0.2 µM
CC(C)C1(C(=O)N2CCc3ncc(C(F)(F)F)cc3C2)CCN(Cc2ccc3oc(=O)n(C)c3c2)C1 (stereo not drawn) [Example 47, 5-((3-isopropyl-3-(3-(trifluoromethyl)-5,6,7,8-tetrahydro-1,6-naphthyridine-6-carbonyl)pyrrolidin-1-yl)methyl)-3-methylbenzo[d]oxazol-2(3H)-one]	< 0.2 µM
Cn1c(=O)oc2ccc(CN3CCC(CO)(C(=O)N4CCc5ncc(C(F)(F)F)cc5C4)C3)cc21 (stereo not drawn) [Example 49, 5-((3-(Hydroxymethyl)-3-(3-(trifluoromethyl)-5,6,7,8-tetrahydro-1,6-naphthyridine-6-carbonyl)pyrrolidin-1-yl)methyl)-3-methylbenzo[d]oxazol-2(3H)-one]	> 1 µM
CC(C)CC1(C(=O)N2CCc3ncc(C(F)(F)F)cc3C2)CCN(Cc2ccc3c(c2)sc(=O)n3C)CC1 [Example 58, 6-((4-Isobutyl-4-(3-(trifluoromethyl)-5,6,7,8-tetrahydro-1,6-naphthyridine-6-carbonyl)piperidin-1-yl)methyl)-3-methylbenzo[d]thiazol-2(3H)-one]	> 1 µM

Results, then the molecule that gave them:

IC50	SMILES
> 1 µM	O=C(N1CCc2ncc(C(F)(F)F)cc2C1)C1(CC2CC2)CCN(Cc2ccc3[nH]ncc3c2)C1 (stereo not drawn) [Example 17, (1-((1H-Indazol-5-yl)methyl)-3-(cyclopropylmethyl)pyrrolidin-3-yl)(3-(trifluoromethyl)-7,8-dihydro-1,6-naphthyridin-6(5H)-yl)methanone]
> 1 µM	Cn1c(=O)ccc2cc(CN3CCC(CC4CC4)(C(=O)N4CCc5ncc(C(F)(F)F)cc5C4)C3)ccc21 (stereo not drawn) [Example 22, 6-((3-(Cyclopropylmethyl)-3-(3-(trifluoromethyl)-5,6,7,8-tetrahydro-1,6-naphthyridine-6-carbonyl)pyrrolidin-1-yl)methyl)-1-methylquinolin-2(1H)-one]
< 0.2 µM	COCC1(C(=O)N2CCc3ncc(C(F)(F)F)cc3C2)CCN(Cc2ccc3ccc(=O)n(C)c3c2)C1 (stereo not drawn) [Example 25, 7-((3-(Methoxymethyl)-3-(3-(trifluoromethyl)-5,6,7,8-tetrahydro-1,6-naphthyridine-6-carbonyl)pyrrolidin-1-yl)methyl)-1-methylquinolin-2(1H)-one]
< 0.2 µM	COCC1(C(=O)N2CCc3ncc(C(F)(F)F)cc3C2)CCN(C(C)c2ccc3c(c2)n(C)c(=O)n3C)C1 (stereo not drawn) [Example 29, 5-(1-(3-(Methoxymethyl)-3-(3-(trifluoromethyl)-5,6,7,8-tetrahydro-1,6-naphthyridine-6-carbonyl)pyrrolidin-1-yl)ethyl)-1,3-dimethyl-1H-benzo[d]imidazol-2(3H)-one]
< 0.2 µM	COCC1(C(=O)N2CCc3ncc(C(F)(F)F)cc3C2)CCN(Cc2ccc3c(c2)N(C)C(=O)CO3)C1 (stereo not drawn) [Example 32, 6-((3-(Methoxymethyl)-3-(3-(trifluoromethyl)-5,6,7,8-tetrahydro-1,6-naphthyridine-6-carbonyl)pyrrolidin-1-yl)methyl)-4-methyl-2H-benzo[b][1,4]oxazin-3(4H)-one]
< 0.2 µM	COCC1(C(=O)N2CCc3ncc(C(F)(F)F)cc3C2)CCN(C(C)c2ccc3c(c2)N(C)C(=O)CO3)C1 (stereo not drawn) [Example 33, 6-(1-(3-(Methoxymethyl)-3-(3-(trifluoromethyl)-5,6,7,8-tetrahydro-1,6-naphthyridine-6-carbonyl)pyrrolidin-1-yl)ethyl)-4-methyl-2H-benzo[b][1,4]oxazin-3(4H)-one]
< 0.2 µM	COCC1(C(=O)N2CCc3ncc(C(F)(F)F)cc3C2)CCN(C(C)c2ccc3oc(=O)n(C)c3c2)C1 (stereo not drawn) [Example 34, 5-(1-(3-(Methoxymethyl)-3-(3-(trifluoromethyl)-5,6,7,8-tetrahydro-1,6-naphthyridine-6-carbonyl)pyrrolidin-1-yl)ethyl)-3-methylbenzo[d]oxazol-2(3H)-one]
< 0.2 µM	COCC1(C(=O)N2CCc3ncc(C(F)(F)F)cc3C2)CCN(Cc2cc3c(cc2Cl)oc(=O)n3C)C1 (stereo not drawn) [Example 37, 6-Chloro-5-((3-(methoxymethyl)-3-(3-(trifluoromethyl)-5,6,7,8-tetrahydro-1,6-naphthyridine-6-carbonyl)pyrrolidin-1-yl)methyl)-3-methylbenzo[d]oxazol-2(3H)-one]
< 0.2 µM	CCOCC1(C(=O)N2CCc3ncc(C(F)(F)F)cc3C2)CCN(Cc2ccc3oc(=O)n(C)c3c2)C1 (stereo not drawn) [Example 45, 5-((3-(Ethoxymethyl)-3-(3-(trifluoromethyl)-5,6,7,8-tetrahydro-1,6-naphthyridine-6-carbonyl)pyrrolidin-1-yl)methyl)-3-methylbenzo[d]oxazol-2(3H)-one]
< 0.2 µM	COCC1(C(=O)N2CCc3ccc(C(F)(F)F)cc3C2)CCN(Cc2ccc3oc(=O)n(C)c3c2)C1 (stereo not drawn) [Example 46, 5-((3-(methoxymethyl)-3-(7-(trifluoromethyl)-1,2,3,4-tetrahydroisoquinoline-2-carbonyl)pyrrolidin-1-yl)methyl)-3-methylbenzo[d]oxazol-2(3H)-one]
0.2 to 1 µM	Cn1c(=O)oc2ccc(CN3CCC(CC#N)(C(=O)N4CCc5ncc(C(F)(F)F)cc5C4)C3)cc21 (stereo not drawn) [Example 48, 2-(1-((3-methyl-2-oxo-2,3-dihydrobenzo[d]oxazol-5-yl)methyl)-3-(3-(trifluoromethyl)-5,6,7,8-tetrahydro-1,6-naphthyridine-6-carbonyl)pyrrolidin-3-yl)acetonitrile]
